Legend:
Format in all cases: cell-based
[1] = tested on: HeLa cells; assay: Cyt c delivery and intracellular distribution (fluorescence imaging)
Text: For a proof-of-principle application in therapeutic protein delivery, we selected cytochrome c (Cyt c), an intracellular signaling protein for apoptosis, as a model cargo molecule. To track Cyt c delivery and intracellular distribution, it was labeled with a fluorescent dye (AF488, green). Cell nucleic were counterstained by Hoechst 33258 (blue). […] This is expected because Cyt c is a highly water-soluble macromolecule (m.w. ˜12 kDa) that cannot diffuse through the cell membrane by itself. Instead, a minute amount of Cyt c was uptaken by cells but trapped in endosomes/lysosomes (not shown). […] This study proves the feasibility and potential of specific targeting of certain cell signaling nodes inside cells with protein drugs.
(§1) HeLa cells were seeded onto glass-bottom dishes and cultured overnight. The cells were treated with cyt c (tagged or untagged) of various concentrations in culture media for 4 h, washed, and cultured in fresh media for another 48 h. Cell viability was measured using the dual-color LIVE/DEAD Viability/Cytotoxicity Kit following the manufacturer's instruction.

[2] = tested on: HeLa cells; assay: Cancer cell viability upon treatment with cytochrome c (LIVE/DEAD); settings: Cyt c concentration of 2 μM for cell incubation
Experimental: as §1

[3] = tested on: HeLa cells; assay: Toxicity study of CB and cholesterol tag (CellTiter-Blue); settings: FIG. 14, HeLa cells
Experimental: Cytotoxicity of the tag was evaluated on HeLa cells. Briefly, cells were seeded in 96-well plates at 3,000 cells/well. CB, the tag, or tagged protein (BSA) was added at a series of concentrations from 10 μM to 3.3 nM. Untreated cells were used as control. After 48-h incubation, 10 μl of CellTiter-Blue reagent (Promega) was added to the wells and the culture was incubated for another 1 h. Cell viability was examined on a microplate reader (Tecan) at ex/em=560/590 nm and the toxicity was analyzed according to the manufacturer's protocol.

Molecule: Cyt c alone: cytochrome c, intracellular signaling protein for apoptosis, m.w. ~12 kDa, untagged
- intracellular fluorescence of AF488-labeled Cyt c [1]: minor dotted intracellular green fluorescence
- cell viability [2]: no sign of toxicity

Molecule: CCOc1ccc(Nc2ccc(/C(=C3C=C/C(=[N+](/CC)Cc4cccc(S(=O)(=O)[O-])c4)C=C/3C)c3ccc(N(CC)Cc4cccc(S(=O)(=O)[O-])c4)cc3C)cc2)cc1.[Na+] [Coomassie blue]
- biocompatibility [3]: biocompatible
